The source of these data is patent US11884661B2, “3-substituted propionic acids as αV integrin inhibitors” (BRISTOL-MYERS SQUIBB COMPANY, priority 2016, dated 2024).

Molecules are shown by their SMILES. Where a name gives a salt, the structure may show the parent alone.

One experiment has as its target T1, human αVβ6 (Homo sapiens, UniProt P06756+P18564).
T1 construct: purchased R & D systems 3817-AV
In words: human αVβ6 HTRF binding assay. Particulars: recombinant human αVβ6 integrin, FITC-conjugated fibronectin. The procedure, abridged: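 Biotinylated recombinant αVβ6 (1.25 nM final) incubated with FITC-fibronectin (5 nM) 1 h at RT, then streptavidin-terbium (0.625 nM) added and incubated overnight at RT in the dark before HTRF read. Buffer: 20 mM Tris pH 7.4, 1 mM MgCl2, 1 mM MnCl2, 0.01% Tween 20, 0.01% BSA.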

The target in the next experiment is human αVβ3 (Homo sapiens, UniProt P05106+P06756). In words: human αVβ3 HTRF binding assay. How it is done: (§1) All binding assays used the HTRF (homogeneous time resolved fluorescence) technology from Cisbio International, therefore all assays are described as HTRF binding assays. The assay results for the Examples are listed above together with the characterization data. The HTRF binding assays are established for the following integrins: human αVβ6, human αVβ1, human αVβ3, human αVβ5, and human αVβ8. All assays used the following assay buffer: 20 mM Tris, pH 7.4, 1 mM MgCl2, 1 mM MnCl2, 0.01% Tween 20, and 0.01% BSA. Alternatively, a SPA-based assay was used for evaluation of receptor binding.
human αVβ3, sequence (P06756 31-992 limits assumed): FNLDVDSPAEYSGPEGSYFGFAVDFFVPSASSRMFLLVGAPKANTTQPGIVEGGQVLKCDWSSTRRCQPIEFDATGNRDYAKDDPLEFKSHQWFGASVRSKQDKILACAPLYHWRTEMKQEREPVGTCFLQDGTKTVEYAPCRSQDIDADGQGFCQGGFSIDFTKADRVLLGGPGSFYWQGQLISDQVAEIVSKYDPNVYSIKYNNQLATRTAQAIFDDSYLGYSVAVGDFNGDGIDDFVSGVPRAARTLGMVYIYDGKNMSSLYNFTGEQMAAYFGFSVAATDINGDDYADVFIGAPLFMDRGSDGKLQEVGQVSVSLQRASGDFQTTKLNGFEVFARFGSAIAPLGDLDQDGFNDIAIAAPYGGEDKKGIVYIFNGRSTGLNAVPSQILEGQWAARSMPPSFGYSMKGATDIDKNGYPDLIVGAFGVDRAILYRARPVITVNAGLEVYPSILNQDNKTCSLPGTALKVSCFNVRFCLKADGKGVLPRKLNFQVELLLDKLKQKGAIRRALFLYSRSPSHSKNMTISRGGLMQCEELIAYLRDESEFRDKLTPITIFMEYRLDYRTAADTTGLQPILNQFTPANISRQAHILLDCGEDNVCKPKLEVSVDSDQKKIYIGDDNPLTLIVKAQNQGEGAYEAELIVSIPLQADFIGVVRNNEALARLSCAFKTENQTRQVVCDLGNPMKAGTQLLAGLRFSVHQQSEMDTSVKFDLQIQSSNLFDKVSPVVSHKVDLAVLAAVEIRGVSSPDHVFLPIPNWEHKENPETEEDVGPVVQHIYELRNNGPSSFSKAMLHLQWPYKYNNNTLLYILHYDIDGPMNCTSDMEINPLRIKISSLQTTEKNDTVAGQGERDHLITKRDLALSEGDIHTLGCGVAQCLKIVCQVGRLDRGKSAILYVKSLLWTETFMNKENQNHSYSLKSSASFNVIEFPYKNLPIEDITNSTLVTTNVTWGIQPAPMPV
human αVβ3, sequence (P05106 27-718 limits assumed): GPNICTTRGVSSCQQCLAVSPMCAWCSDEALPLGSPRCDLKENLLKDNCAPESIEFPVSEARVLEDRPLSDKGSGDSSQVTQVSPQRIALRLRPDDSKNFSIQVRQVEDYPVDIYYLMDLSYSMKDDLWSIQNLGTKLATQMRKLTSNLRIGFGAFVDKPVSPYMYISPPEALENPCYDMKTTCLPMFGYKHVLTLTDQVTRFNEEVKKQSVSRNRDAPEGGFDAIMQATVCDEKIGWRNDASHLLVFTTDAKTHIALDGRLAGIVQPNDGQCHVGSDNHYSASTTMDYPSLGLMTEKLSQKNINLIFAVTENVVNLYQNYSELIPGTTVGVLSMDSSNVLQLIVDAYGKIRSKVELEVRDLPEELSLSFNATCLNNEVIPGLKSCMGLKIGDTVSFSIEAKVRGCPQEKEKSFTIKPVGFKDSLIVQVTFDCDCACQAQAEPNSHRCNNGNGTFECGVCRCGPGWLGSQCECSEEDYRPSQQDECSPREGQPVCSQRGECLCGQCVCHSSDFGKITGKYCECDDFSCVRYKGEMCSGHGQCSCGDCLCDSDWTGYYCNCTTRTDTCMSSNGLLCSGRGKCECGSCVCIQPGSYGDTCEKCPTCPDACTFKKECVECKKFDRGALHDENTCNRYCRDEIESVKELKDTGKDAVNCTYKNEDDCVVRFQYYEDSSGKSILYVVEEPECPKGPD
(§2) The following describes the components and a representative procedure for the human αVβ6 HTRF binding assay: Recombinant human αVβ6 Integrin (R & D systems, 3817-AV) was biotinylated. Biotinylated human αVβ6 Integrin was added to assay vessel at a final concentration of 1.25 nM. FITC-conjugated fibronectin (Cytoskeleton, FNR02) was then added at the final concentration of 5 nM. The mixture was centrifuged at 600 rpm for three minutes using Thermo Fisher Heraeus Multifuge X3 centrifuge and then incubated at RT for an hour. Streptavidin Terbium (Cisbio international 610STLB) was then added at the final concentration of 0.625 nM. The resulting mixture was centrifuged at 600 rpm for three minutes using Thermo Fisher Heraeus Multifuge X3 centrifuge and then incubated at room temperature overnight in dark before reading HTRF signals.
Background: Time-resolved FRET reads energy transfer from a long-lived donor to a nearby acceptor.

Another experiment has as its target human αVβ8 (Homo sapiens, UniProt P06756+P26012). In words: human αVβ8 HTRF binding assay. How it is done: (§3) All binding assays used the HTRF (homogeneous time resolved fluorescence) technology from Cisbio International, therefore all assays are described as HTRF binding assays. The assay results for the Examples are listed above together with the characterization data. The HTRF binding assays are established for the following integrins: human αVβ6, human αVβ1, human αVβ3, human αVβ5, and human αVβ8. All assays used the following assay buffer: 20 mM Tris, pH 7.4, 1 mM MgCl2, 1 mM MnCl2, 0.01% Tween 20, and 0.01% BSA. Alternatively, a SPA-based assay was used for evaluation of receptor binding. […]

The next experiment deals with human αVβ5 (Homo sapiens, UniProt P06756+P18084). As to the kind of experiment: human αVβ5 HTRF binding assay. How it is done: as §3
human αVβ5, sequence (P06756 31-992 limits assumed): as the sequence (P06756 31-992 limits assumed) above
human αVβ5, sequence (P18084 24-719 limits assumed): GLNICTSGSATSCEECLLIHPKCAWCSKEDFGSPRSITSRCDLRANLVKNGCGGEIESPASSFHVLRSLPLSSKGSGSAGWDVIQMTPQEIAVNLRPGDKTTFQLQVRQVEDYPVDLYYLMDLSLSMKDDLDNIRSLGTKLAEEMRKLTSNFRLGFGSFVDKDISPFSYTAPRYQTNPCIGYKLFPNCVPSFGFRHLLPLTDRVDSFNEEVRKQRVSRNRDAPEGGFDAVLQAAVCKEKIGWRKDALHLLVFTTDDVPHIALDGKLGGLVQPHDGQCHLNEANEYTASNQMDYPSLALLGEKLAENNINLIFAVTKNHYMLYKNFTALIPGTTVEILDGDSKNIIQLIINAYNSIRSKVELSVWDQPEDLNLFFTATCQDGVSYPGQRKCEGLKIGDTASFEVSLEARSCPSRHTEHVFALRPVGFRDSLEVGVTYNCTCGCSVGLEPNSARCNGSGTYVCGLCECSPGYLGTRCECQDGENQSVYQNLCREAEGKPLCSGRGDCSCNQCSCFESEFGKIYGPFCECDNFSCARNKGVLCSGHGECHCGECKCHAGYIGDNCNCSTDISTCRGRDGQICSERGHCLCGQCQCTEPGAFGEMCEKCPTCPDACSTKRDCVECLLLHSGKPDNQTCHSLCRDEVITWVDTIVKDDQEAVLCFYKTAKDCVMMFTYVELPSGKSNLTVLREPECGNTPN
The target of another experiment is human αVβ1 (Homo sapiens, UniProt P05556+P06756). As to the kind of experiment: human αVβ1 HTRF binding assay. How it is done:
as §1, §2

T1 sequence (P06756 31-992 limits assumed): as the sequence (P06756 31-992 limits assumed) above
T1 sequence (P18564 22-707 limits assumed): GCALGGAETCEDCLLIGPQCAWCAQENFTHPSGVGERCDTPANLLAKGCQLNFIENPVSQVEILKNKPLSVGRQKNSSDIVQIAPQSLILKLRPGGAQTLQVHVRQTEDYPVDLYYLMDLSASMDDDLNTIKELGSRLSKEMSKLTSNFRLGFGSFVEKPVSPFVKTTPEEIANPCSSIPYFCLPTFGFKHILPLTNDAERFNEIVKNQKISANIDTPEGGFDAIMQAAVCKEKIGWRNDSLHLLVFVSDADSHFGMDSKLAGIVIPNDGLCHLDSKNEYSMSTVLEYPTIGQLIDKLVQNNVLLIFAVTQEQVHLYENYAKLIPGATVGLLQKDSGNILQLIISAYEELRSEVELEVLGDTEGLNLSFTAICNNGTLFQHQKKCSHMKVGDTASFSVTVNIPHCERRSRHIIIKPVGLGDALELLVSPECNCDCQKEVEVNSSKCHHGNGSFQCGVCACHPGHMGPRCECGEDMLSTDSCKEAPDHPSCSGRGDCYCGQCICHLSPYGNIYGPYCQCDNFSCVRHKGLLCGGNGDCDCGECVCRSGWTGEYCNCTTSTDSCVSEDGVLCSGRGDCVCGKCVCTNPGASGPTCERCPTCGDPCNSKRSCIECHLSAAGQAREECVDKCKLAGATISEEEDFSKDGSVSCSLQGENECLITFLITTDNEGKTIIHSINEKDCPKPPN
human αVβ8, sequence (P06756 31-992 limits assumed): as the sequence (P06756 31-992 limits assumed) above
human αVβ8, sequence (P26012 43-684 limits assumed): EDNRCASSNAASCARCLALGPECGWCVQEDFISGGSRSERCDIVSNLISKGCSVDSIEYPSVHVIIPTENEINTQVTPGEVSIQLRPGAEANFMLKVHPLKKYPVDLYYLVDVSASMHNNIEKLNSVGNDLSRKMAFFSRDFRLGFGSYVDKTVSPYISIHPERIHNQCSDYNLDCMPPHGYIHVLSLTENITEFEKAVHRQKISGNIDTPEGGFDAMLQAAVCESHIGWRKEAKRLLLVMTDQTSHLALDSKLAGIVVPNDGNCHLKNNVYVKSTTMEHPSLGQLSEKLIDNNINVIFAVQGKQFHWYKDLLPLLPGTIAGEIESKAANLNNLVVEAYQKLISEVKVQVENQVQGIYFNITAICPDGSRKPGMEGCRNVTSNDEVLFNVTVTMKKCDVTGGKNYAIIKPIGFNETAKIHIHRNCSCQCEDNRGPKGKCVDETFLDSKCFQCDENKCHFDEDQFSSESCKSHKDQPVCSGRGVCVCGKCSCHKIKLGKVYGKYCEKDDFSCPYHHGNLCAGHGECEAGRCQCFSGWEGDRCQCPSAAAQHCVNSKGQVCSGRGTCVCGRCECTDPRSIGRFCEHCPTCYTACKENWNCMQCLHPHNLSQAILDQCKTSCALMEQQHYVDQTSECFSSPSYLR
human αVβ1, sequence (P06756 31-992 limits assumed): as the sequence (P06756 31-992 limits assumed) above
human αVβ1, sequence (P05556 21-728 limits assumed): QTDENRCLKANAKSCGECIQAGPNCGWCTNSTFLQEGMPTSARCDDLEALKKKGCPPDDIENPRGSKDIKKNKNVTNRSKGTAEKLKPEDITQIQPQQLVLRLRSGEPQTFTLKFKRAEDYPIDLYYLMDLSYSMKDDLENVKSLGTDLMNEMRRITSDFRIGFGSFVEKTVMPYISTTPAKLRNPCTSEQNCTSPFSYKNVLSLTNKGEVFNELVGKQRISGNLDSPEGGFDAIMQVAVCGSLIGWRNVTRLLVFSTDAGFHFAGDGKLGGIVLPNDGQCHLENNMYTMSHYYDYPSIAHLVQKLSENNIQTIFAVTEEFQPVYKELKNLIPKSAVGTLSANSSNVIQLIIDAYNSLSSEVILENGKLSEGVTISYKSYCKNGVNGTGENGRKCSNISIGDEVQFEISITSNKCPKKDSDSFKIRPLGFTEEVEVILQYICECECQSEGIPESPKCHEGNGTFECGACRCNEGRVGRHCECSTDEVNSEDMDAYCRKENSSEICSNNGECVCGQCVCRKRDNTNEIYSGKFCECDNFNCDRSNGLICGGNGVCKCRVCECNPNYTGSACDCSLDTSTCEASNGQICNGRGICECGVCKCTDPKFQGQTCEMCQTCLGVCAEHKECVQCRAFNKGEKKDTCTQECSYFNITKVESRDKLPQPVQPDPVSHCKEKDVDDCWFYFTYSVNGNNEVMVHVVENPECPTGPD

For the compound `COc1cncc(C(CC(=O)O)n2ccc(CCCc3ccc4c(n3)NCCC4)n2)c1` (single isomer, unassigned) [Example 64, 3-(5-methoxypyridin-3-yl)-3-(3-(3-(5,6,7,8-tetrahydro-1,8-naphthyridin-2-yl)propyl)-1H-pyrazol-1-yl)propanoic acid], the values for the IC50 on human αVβ6, at human αVβ3 and on human αVβ8 were 19 nM, 3.8 nM and 110 nM, respectively.

As to `COc1ccc(C(CC(=O)O)n2ccc(CCCCc3ccc4c(n3)NCCC4)n2)cn1` (racemic) [Example 1, (±)-3-(6-Methoxypyridin-3-yl)-3-(3-(4-(5,6,7,8-tetrahydro-1,8-naphthyridin-2-yl)butyl)-1H-pyrazol-1-yl)propanoic acid], the IC50 turned out to be 6 nM on human αVβ6, 1.5 nM on human αVβ5, 2.4 nM at human αVβ3 and 262 nM on human αVβ8.

Consider `COc1cncc(C(CC(=O)O)n2nccc2CCCc2ccc3c(n2)NCCC3)c1` (single isomer, unassigned) [Example 63, 3-(5-methoxypyridin-3-yl)-3-(5-(3-(5,6,7,8-tetrahydro-1,8-naphthyridin-2-yl)propyl)-1H-pyrazol-1-yl)propanoic acid], for which the IC50 at human αVβ6 worked out at 13 nM; on human αVβ5 it was 0.87 nM; on human αVβ3, 8 nM; on human αVβ8 it was 770 nM.

For the compound `O=C(O)CC(c1cccc(N2CCOCC2)c1)n1ccc(CCCc2ccc3c(n2)NCCC3)n1` (racemic) [Example 32, (±)-3-(3-Morpholinophenyl)-3-(3-(3-(5,6,7,8-tetrahydro-1,8-naphthyridin-2-yl)propyl)-1H-pyrazol-1-yl)propanoic acid], the IC50 on human αVβ6 stood at 4.3 nM; at human αVβ3, 5.5 nM; at human αVβ8 it was 2700 nM; at human αVβ1, 43 nM.

As for `COc1ccc(C(CC(=O)O)c2ncc(CCCCc3ccc4c(n3)NCCC4)s2)cc1F` (single isomer, unassigned) [Example 40], the IC50 on human αVβ6 turned out to be 17 nM; on human αVβ5, 10 nM; on human αVβ3, 28 nM; on human αVβ8, 2600 nM.

As to `COc1ccc(C(CC(=O)O)c2nc(CCCc3ccc4c(n3)NCCC4)cs2)cn1` (single isomer, unassigned) [Example 15, 3-(6-Methoxypyridin-3-yl)-3-(4-(3-(5,6,7,8-tetrahydro-1,8-naphthyridin-2-yl)propyl)thiazol-2-yl)propanoic acid], the IC50 on human αVβ6 worked out at 0.7 nM; at human αVβ3, 1.4 nM; on human αVβ8, 330 nM; at human αVβ1 it was 55 nM.

For the compound `COc1cncc(C(CC(=O)O)n2ccc(CCCc3ccc4c(n3)NCCC4)n2)c1` (single isomer, unassigned) [Example 65, 3-(5-methoxypyridin-3-yl)-3-(3-(3-(5,6,7,8-tetrahydro-1,8-naphthyridin-2-yl)propyl)-1H-pyrazol-1-yl)propanoic acid], the IC50 at human αVβ6 came out at 410 nM; on human αVβ5, 1.1 nM; at human αVβ3, 4.3 nM.

For `CCOC(=O)C[C@@H](c1ccc(OC)nc1)n1ccc(CCCc2ccc3c(n2)NCCC3)n1` [Example 47, Ethyl (S)-3-(6-methoxypyridin-3-yl)-3-(3-(3-(5,6,7,8-tetrahydro-1,8-naphthyridin-2-yl)propyl)-1H-pyrazol-1-yl)propanoate], the IC50 is 11 nM at human αVβ6, 270 nM on human αVβ5 and 1120 nM on human αVβ3.

For `COc1ccc(C(CC(=O)O)n2ccc(OCCCc3ccc4c(n3)NCCC4)n2)cn1` (racemic) [Example 48, (±)-3-(6-Methoxypyridin-3-yl)-3-(3-(3-(5,6,7,8-tetrahydro-1,8-naphthyridin-2-yl)propoxy)-1H-pyrazol-1-yl)propanoic acid], the IC50 at human αVβ6 amounted to 29 nM; at human αVβ5 it was 2.7 nM; at human αVβ3 it was 7.5 nM.

In the case of `Cn1cc([C@H](CC(=O)O)n2ccc(CCCc3ccc4c(n3)NCCC4)n2)ccc1=O` [Example 45, (S)-3-(1-Methyl-6-oxo-1,6-dihydropyridin-3-yl)-3-(3-(3-(5,6,7,8-tetrahydro-1,8-naphthyridin-2-yl)propyl)-1H-pyrazol-1-yl)propanoic acid ditrifluoroacetic acid salt], the IC50 at human αVβ6 was determined as 1.6 nM; on human αVβ3, 1.6 nM; at human αVβ8 it was 3020 nM.

`Cc1ncc([C@H](CC(=O)O)n2ccc(CCCc3ccc4c(n3)NCCC4)n2)cn1` [Example 54, (S)-3-(2-Methylpyrimidin-5-yl)-3-(3-(3-(5,6,7,8-tetrahydro-1,8-naphthyridin-2-yl)propyl)-1H-pyrazol-1-yl)propanoic acid]: the IC50 on human αVβ6 worked out at 18 nM; on human αVβ5 it was 0.99 nM; at human αVβ3, 7.3 nM.

As to `COc1ccc(C(CC(=O)O)n2ccc(-c3cccc(-c4ccc5c(n4)NCCC5)c3)n2)cn1` (racemic) [Example 46, (±)-3-(6-Methoxypyridin-3-yl)-3-(3-(3-(5,6,7,8-tetrahydro-1,8-naphthyridin-2-yl)phenyl)-1H-pyrazol-1-yl)propanoic acid], the IC50 on human αVβ6 was 28 nM; on human αVβ5, 11 nM; on human αVβ3, 14 nM; on human αVβ8, 8200 nM.

As to `COc1ccc(C(CC(=O)O)n2ccc(CCCc3ccc4c(n3)NCCC4)n2)cn1` (racemic) [Example 2, (±)-3-(6-Methoxypyridin-3-yl)-3-(3-(3-(5,6,7,8-tetrahydro-1,8-naphthyridin-2-yl)propyl)-1H-pyrazol-1-yl)propanoic acid], the IC50 stood at 6.8 nM at human αVβ6, 0.34 nM at human αVβ5, 2.7 nM at human αVβ3 and 420 nM at human αVβ8.

Turning to `COc1ncc(C(CC(=O)O)n2nccc2CCCc2ccc3c(n2)NCCC3)cc1F` (racemic) [Example 77, (±)-3-(5-fluoro-6-methoxypyridin-3-yl)-3-{5-[3-(5,6,7,8-tetrahydro-1,8-naphthyridin-2-yl)propyl]-1H-pyrazol-1-yl}propanoic acid], the half-inhibitory concentration (IC50) at human αVβ6 was found to be 18 nM.

On to `COc1ccc([C@H](CC(=O)O)c2cnn(CCCc3ccc4c(n3)NCCC4)c2)cn1` [Example 8, (A)-3-(6-Methoxypyridin-3-yl)-3-(1-(3-(5,6,7,8-tetrahydro-1,8-naphthyridin-2-yl)propyl)-1H-pyrazol-4-yl)propanoic acid], for which the IC50 on human αVβ6 is 64 nM.

For `CN(C)C(=O)c1ccc(C(CC(=O)O)c2nc(CCCCc3ccc4c(n3)NCCC4)cs2)cc1` (single isomer, unassigned) [Example 127, 3-(4-(dimethylcarbamoyl)phenyl)-3-(4-(4-(5,6,7,8-tetrahydro-1,8-naphthyridin-2-yl)butyl)thiazol-2-yl)propanoic acid], the IC50 at human αVβ6 amounted to 60 nM.

Regarding `CN(C)c1ccc(C(CC(=O)O)c2nc(CCCc3ccc4c(n3)NCCC4)cs2)cn1` (single isomer, unassigned) [Example 134, 3-(6-(dimethylamino)pyridin-3-yl)-3-(4-(3-(5,6,7,8-tetrahydro-1,8-naphthyridin-2-yl)propyl)thiazol-2-yl)propanoic acid], at human αVβ6, the IC50 is 1.8 nM.

On to `O=C(O)CC(c1cncc(N2CCOCC2)c1)n1nccc1CCCc1ccc2c(n1)NCCC2` (single isomer, unassigned) [Example 94, 3-(5-morpholinopyridin-3-yl)-3-(5-(3-(5,6,7,8-tetrahydro-1,8-naphthyridin-2-yl)propyl)-1H-pyrazol-1-yl)propanoic acid], for which, at human αVβ6, the IC50 is 19 nM.

As to `COc1ccc(C(CC(=O)O)n2ccc(CCCc3ccc4c(n3)NCCC4)n2)cn1` (single isomer, unassigned) [Example 4, 3-(6-Methoxypyridin-3-yl)-3-(3-(3-(5,6,7,8-tetrahydro-1,8-naphthyridin-2-yl)propyl)-1H-pyrazol-1-yl)propanoic acid], the IC50 on human αVβ6 is 210 nM.

As to `CN(C)C(=O)c1ccc(C(CC(=O)O)c2nc(CCCCc3ccc4c(n3)NCCC4)cs2)cc1` (single isomer, unassigned) [Example 128, 3-(4-(dimethylcarbamoyl)phenyl)-3-(4-(4-(5,6,7,8-tetrahydro-1,8-naphthyridin-2-yl)butyl)thiazol-2-yl)propanoic acid], the IC50 at human αVβ6 came to 4.3 nM.

As a reminder, the IC50 is the concentration needed to halve the response being measured.
